Measurements as given in patent US8691854B2, “Chemical compounds and the uses thereof as a medicine” (Trophos, priority 2005, dated 2014).

The compounds below were run on primary neurones isolated from rat striatum expressing mutated huntingtin (assay: Protection of striatum neurones in a death test induced by over-expression of a mutated form of huntingtin, GFP as reporter gene). Details: 0.3 μM compound; survival of GFP-positive cells minus DMSO, relative to BDNF (5 ng/ml) minus DMSO; active when ratio larger than 0.2.
Assay type: cell-based
Experimental: Evaluation of the Protection Provided by the Compound of Formula I on Striatum Neurones in a Death Test Induced by Over-Expression of a Mutated Form of Huntingtine by Using GFP as Reporter Gene
Primary cultures of striatum neurones are prepared as described in the literature (Mao L. et al., Methods Mol. Med., 2003, 79: 379-86).
Before sowing, an expression vector containing a promoter element followed by the DNA coding for a truncated form of huntingtin which comprises the first 480 amino acids and 68 CAG codons (Saudou et al., Cell, 1998, 95:55-66), purified beforehand, is introduced by electroporation according to the procedure described by Raoul et al., (Neuron, 2002, 35:1067-83).
A second expression vector, also purified beforehand, containing DNA coding for the green fluorescent protein (GFP) (Columbia University) is also electroporated and is used as a reporter gene.
The cells which survive electroporation are sown at a density of 4,000 cells per well on 96-well plates. The culture is achieved in 175 μl of Neurobasal medium (GIBCO) complemented with final 1 mM of pyruvate and with B-27 1/100 (Beckton Dickinson). The cells are maintained in the culture for 6 days without changing the medium.
[…] Positive controls are made by adding BDNF (Brain-Derived Neurotrophic Factor) at 5 ng/ml (Tebu) finally. The negative controls only receive 0.5% DMSO.
Cell death is evaluated after 7 days by counting the number of living cells expressing GFP.
The activity of the compounds to be tested was evaluated by their capability of preventing death of striatum neurones grown in the Neurobasal medium, as compared with survival of striatum neurones in a medium supplemented with BDNF.
The results are expressed as a ratio evaluating survival of positive GFP cells in the presence of the compound to be tested. This is therefore the number of living cells after treatment with the compound to be tested, reduced by the number of living cells after treatment with DMSO, based on (divided by) the number of survival cells after treatment with BDNF, reduced by the number of living cells after treatment with DMSO.
This ratio therefore represents the survival percentage due to the tested compound relatively to survival induced by BDNF.
In this test, a compound is considered as being active when said ratio is larger than 0.2 i.e. when it has a neuroprotective activity at least equal to 20% of the neuroprotective activity of BDNF.
For `CS(=O)(=O)c1cccc(C=CC=NNc2nc(-c3ccc(C(F)(F)F)cc3)cs2)c1` [Example 24], the GFP ratio was >0.2. For `FC(F)(F)c1ccc(-c2csc(NN=CC=Cc3ccccn3)n2)cc1` [Example 26], the GFP ratio was >0.2.

Same assay, conditions: 1 μM compound; survival of GFP-positive cells minus DMSO, relative to BDNF (5 ng/ml) minus DMSO; active when ratio larger than 0.2
With `Fc1ccccc1C=CC=NNc1nc(-c2ccc(Cl)cc2)cs1` [Example 1] the GFP ratio was >0.2. `N#Cc1cccc(C=CC=NNc2nc(-c3ccc(Cl)cc3)cs2)c1` [Example 10] was tested, and the GFP ratio was >0.2. For `N#Cc1cccc(C=CC=NNc2nc(-c3ccc(C(F)(F)F)cc3)cs2)c1` [Example 11], the GFP ratio was >0.2. With `O=[N+]([O-])c1cccc(C=CC=NNc2nc(-c3ccc(C(F)(F)F)cc3)cs2)c1` [Example 13] the GFP ratio was >0.2. For `Nc1cccc(C=CC=NNc2nc(-c3ccc(Cl)cc3)cs2)c1` [Example 14], the GFP ratio was >0.2. For `Nc1cccc(C=CC=NNc2nc(-c3ccc(C(F)(F)F)cc3)cs2)c1` [Example 17], the GFP ratio was >0.2. `CS(=O)(=O)c1cccc(C=CC=NNc2nc(-c3ccc(Cl)cc3)cs2)c1` [Example 18] was tested, and the GFP ratio was >0.2. `FC(F)(F)c1ccc(-c2csc(NN=CC=Cc3ccc4c(c3)OCO4)n2)cc1` [Example 21] was tested, and the GFP ratio was >0.2. For `Clc1ccc(-c2csc(NN=CC=Cc3ccccn3)n2)cc1` [Example 25], the GFP ratio was >0.2.

Same assay, conditions: 3 μM compound; survival of GFP-positive cells minus DMSO, relative to BDNF (5 ng/ml) minus DMSO; active when ratio larger than 0.2
In the case of “3-(3-nitrophenyl)-2-propenal-[4-(4-chlorophenyl-2-thiazolyl)hydrazone [Example 2]”, the GFP ratio is reported as >0.2. With `COc1ccccc1C=CC=NNc1nc(-c2ccc(Cl)cc2)cs1` [Example 3] the GFP ratio was >0.2. `Oc1cccc(-c2csc(NN=CC=Cc3ccccc3)n2)c1` [Example 7] was tested, and the GFP ratio was >0.2. In the case of `Cc1ccccc1C=CC=NNc1nc(-c2ccc(Cl)cc2)cs1` [Example 9], the GFP ratio is reported as >0.2. For `FC(F)(F)c1ccc(-c2csc(NN=CC=Cc3ccncc3)n2)cc1` [Example 16], the GFP ratio was >0.2. `N#Cc1cccc(C=CC=NNc2nc(-c3cccc(O)c3)cs2)c1` [Example 19] was tested, and the GFP ratio was >0.2. For `COc1cc(Cl)ccc1-c1csc(NN=CC=Cc2ccccc2)n1` [Example 22], the GFP ratio was >0.2. With `Fc1ccc(C=CC=NNc2nc(-c3ccc(C(F)(F)F)cc3)cs2)cc1` [Example 29] the GFP ratio was >0.2.

Same assay, conditions: 10 μM compound; survival of GFP-positive cells minus DMSO, relative to BDNF (5 ng/ml) minus DMSO; active when ratio larger than 0.2
With “3-(2-chlorophenyl)-2-propenal-[4-(4-chlorophenyl-2-thiazolyl)hydrazone [Example 12]” the GFP ratio was >0.2. For `COc1cccc(C=CC=NNc2nc(-c3ccc(Cl)cc3)cs2)c1` [Example 6], the GFP ratio was >0.2. With `Clc1ccc(-c2csc(NN=CC=Cc3ccncc3)n2)cc1` [Example 8] the GFP ratio was >0.2.
